Test results reported in patent publication US7595326B2, “Synthesis of novel tubulin polymerization inhibitors: benzoylphenylurea (BPU) sulfur analogs” (Champions Biotechnology, Inc., priority 2005, dated 2009).

How the values were obtained:
[1] = tested on: MCF-7 cells; test: Apoptosis of MCF-7 cells; type: cell-based; details: 48 hours
[2] = tested on: Panc203; test: MTT growth inhibition, pancreatic cancer cell line Panc203; type: cell-based; details: for IC50: Homo sapiens, Panc203, MTT, 96-hours treatment, average of three independent experiments
Description: (§1) Eight of these analogs 6d, 6h, 6n, 6g, 7b, 7d, 8g, and 8h were tested for their cytotoxicity in seven pancreatic cell lines ASPC1, Panc1, Panc203, Panc430, Pane 1005, MiaPaca2, and HS766T using MTT assay. Cells were trypsinized, seeded at 5×10^3 cells/well in 96-well plate and allowed to grow for 24 hours before the treatment with exponential increasing concentrations of drugs in the presence of 10% FBS. After a 96-hours period of treatment, 20 μl of MTT solution (5 mg/ml in PBS) were added to each well, and the plates were then incubated for 3 hours at 37° C. Medium was then replaced with 100 μl of DMSO per well. Plates were shaken and the optical density was measured at 570 nm using a multiwell plate reader (Bio-Rad, Model 550, Bio-Rad Inc., Hercules, Calif.). Each experiment was performed in triplicate for each drug concentration and was carried out independently at least 3 times. The IC50 value was defined as the concentration needed for a 50% reduction in the absorbance calculated based on the survival curves. Response to drug treatment was assessed by standardizing treatment groups to untreated controls. Compounds activity was compared with compound 1.
(§2) Biology. Table 2 (Growth Inhibition of Pancreatic Cancer Cell Lines by BPU and BPTU Analogues (IC50)^a)compares the cytotoxicity of a series of new derivatives against a panel of seven pancreatic cancer cell lines, as determined by MTT assay. See, Mosmann, T., J. Immunol. Methods 65:55-63 (1983).

[3] = tested on: Panc1005; test: MTT growth inhibition, pancreatic cancer cell line Panc1005; type: cell-based; details: Homo sapiens, 96-hours treatment, average of three independent experiments
Description: as §1, §2

[4] = tested on: HS766; test: MTT growth inhibition, pancreatic cancer cell line HS766; type: cell-based; details: Homo sapiens, Hs 766, 96-hours treatment, average of three independent experiments
Description: as §1, §2

[5] = tested on: Panc430; test: MTT growth inhibition, pancreatic cancer cell line Panc430; type: cell-based; details: for IC50: Pancreatic cancer cell, MTT, 96-hours treatment, average of three independent experiments
Description: as §1, §2

[6] = tested on: Panc1; test: MTT growth inhibition, pancreatic cancer cell line Panc1; type: cell-based; details: for IC50: Homo sapiens, PANC-1, MTT, 96-hours treatment, average of three independent experiments
Description: as §1, §2

[7] = tested on: ASPC1; test: MTT growth inhibition, pancreatic cancer cell line ASPC1; type: cell-based; details: Homo sapiens, 96-hours treatment, average of three independent experiments
Description: as §1, §2

[8] = tested on: Miapaca2; test: MTT growth inhibition, pancreatic cancer cell line Miapaca2; type: cell-based; details: for IC50: Homo sapiens, MIA PaCa-2, MTT, 96-hours treatment, average of three independent experiments
Description: as §1, §2

[9] = tested on: LnCaP; test: MTT growth inhibition, prostate cancer cell line LnCaP; type: cell-based, human; details: for IC50: Homo sapiens, LNCaP, MTT, average of three independent experiments
Description: (§3) This MTT assay was carried using human prostate cancer cell lines CWR22R, LAPC-4 and LnCap using Promega cell titer 96 nonradioactive cell proliferation kit. Cells were trypsinized and centrifuged at 1000 rpm for 5 minutes and the supernatant was aspirated. Cells were resuspended with HBSS to a concentration of […]. Cell suspension was diluted in serum containing medium to plate 2000 cells/well/0.2 ml. Cell suspension was transferred to sterile solution basin. Cells were plated using multichannel pipette set at 200 μl and incubated overnight for attachment. One plate was prepared for day 0 MTT assay as follows: 100 μl of media was removed from each well using multichannel pipette and 15 μl of MTT reagent was added. Plates were incubated at 37° C. for 4 hrs. 100 μl of STOP solution was added to each well and incubated at room temperature for 1 hour. Absorbance was measured at 570 and 650 nm on plate reader. All the media from the remaining plates were carefully removed and the cells were treated with the media containing drug. MTT assays were done on days 0, 3, 5 and 7. In the preliminary screening four BPU sulfur analogs 6l, 6h, 6n, 7d and 8h were screened and their activity was compared with compound 1.
(§4) Compounds with significant inhibitory activity in pancreatic cancer cells were further evaluated against prostate cancer cell lines in the MTT assay, (Mosmann, T., J. Immunol. Methods 65:55-63 (1983)) and the results were compared to those for compound 1 (Table 3).

[10] = tested on: CWR22R; test: MTT growth inhibition, prostate cancer cell line CWR22R; type: cell-based, human; details: for IC50: Homo sapiens, 22Rv1, MTT, average of three independent experiments
Description: as §3, §4

[11] = tested on: LAPC-4; test: MTT growth inhibition, prostate cancer cell line LAPC-4; type: cell-based, human; details: for IC50: Homo sapiens, LAPC4, MTT, average of three independent experiments
Description: as §3, §4

[12] = tested on: tubulin (colchicine binding site); test: Inhibition of [3H]colchicine binding
[13] = tested on: seven pancreatic cell lines; test: MTT growth inhibition, panel of seven pancreatic cancer cell lines; type: cell-based; details: for times more potent than compound 1, pancreatic cell lines: MTT, seven pancreatic cell lines
Description: as §1, §2

[14] = tested on: prostate cancer cell lines CWR22R, LAPC-4 and LnCap; test: MTT growth inhibition, prostate cancer cell lines (panel); type: cell-based, human; details: preliminary screening
Description: as §3, with “In the preliminary screening four BPU sulfur analogs 6l, 6h, 6n, 7d and 8h were screened and their activity was compared with compound 1.” left out
as §4

| IC50 [2] [µM] | IC50 [3] [µM] | IC50 [4] [µM] | IC50 [5] [µM] | IC50 [6] [µM] | IC50 [7] [µM] | IC50 [8] [µM] | SMILES | other results |
| --- | --- | --- | --- | --- | --- | --- | --- | --- |
| 5.5 | > 10 | 8 | 6.5 | 7.5 | 6 | 7 | Nc1ccccc1C(=O)NC(=O)Nc1ccc(Sc2ncccn2)cc1 [Compound 7b] | – |
| 5.5 | 5.5 | 6.5 | 5.5 | 6.5 | 2.5 | 8 | O=C(NC(=O)c1ccccc1[N+](=O)[O-])Nc1ccc([S+]([O-])c2ncc(Br)cn2)cc1 (stereo not shown) [Compound 8g, 1-[4-(5-Bromopyrimidine-2-sulfinyl)phenyl]-3-(2-nitrobenzoyl)-urea] | IC50 ([13]; Pancreatic cancer cell, all the cell lines of the panel): 2.5 to 8 µM |

More lines, now with the values behind:

| SMILES | IC50 [2] [µM] | IC50 [3] [µM] | IC50 [4] [µM] | IC50 [5] [µM] | IC50 [6] [µM] | IC50 [7] [µM] | IC50 [8] [µM] | other results |
| --- | --- | --- | --- | --- | --- | --- | --- | --- |
| Cc1cc(NC(=O)NC(=O)c2ccccc2N(C)C)ccc1Oc1ncc(Br)cn1 [Compound 1] | – | – | – | – | – | – | – | rate of apoptosis, MCF-7 cells ([1]; 10 nM): 16.1%; rate of apoptosis, MCF-7 cells ([1]; 30 nM): 19.5%; rate of apoptosis, MCF-7 cells ([1]; 100 nM): 27.7% |
| N=C(NC(=O)c1ccccc1)Oc1ccc(Sc2ncc(Br)cn2)cc1 [Compound 6g] | 7.5 | > 10 | 5.5 | 2 | > 10 | > 10 | 5 | – |
| O=C(NC(=S)Nc1ccc(Sc2ncc(Br)cn2)cc1)c1ccccc1 [Compound 6h] | > 10 | > 10 | 8.5 | 7.5 | 9.5 | 10 | 10 | IC50 [9]: > 10 µM; IC50 [10]: > 10 µM; IC50 [11]: 6 µM |
| O=C(NC(=O)c1ccccc1[N+](=O)[O-])Nc1ccc(Sc2ncccn2)cc1 [Compound 6l] | – | – | – | – | – | – | – | IC50 [9]: 0.5 µM; IC50 [10]: 5 µM; IC50 [11]: 0.6 µM |
| O=C(NC(=O)c1ccccc1[N+](=O)[O-])Nc1ccc(Oc2nccc(Br)n2)cc1 [Compound 6m] | – | – | – | – | – | – | – | binding to the colchicine binding site (in words) [12]: poor binding affinity |
| O=C(NC(=O)c1ccccc1[N+](=O)[O-])Nc1ccc(Sc2ncc(Br)cn2)cc1 [Compound 6n, 1-[4-(5-Bromopyrimidin-2-ylsulfanyl)phenyl]-3-(2-nitrobenzoyl)-urea] | – | – | – | – | – | – | – | increase in potency of 6n over 6m, Panc203 ([2]; sulfide versus ether link): 14 fold; killing of MCF-7 cells compared with 1 (in words) [1]: more potent than 1; times more potent than compound 1, pancreatic cell lines [13]: 20 time; times more potent than compound 1, prostate cancer cell lines [14]: 20 times; increase in potency of 6n over 6m, Panc1 ([6]; sulfide versus ether link): 8 fold; binding to the colchicine binding site (in words) [12]: poor binding affinity; increase in potency of 6n over 6m, Mia-paca2 ([8]; sulfide versus ether link): 8 fold; increase in potency of 6n over 6m, LnCap ([9]; sulfide versus ether link): 20 fold; increase in potency of 6n over 6m, CWR22R ([10]; sulfide versus ether link): 100 fold |
| Nc1ccccc1C(=O)NC(=O)Nc1ccc(Sc2ncc(Br)cn2)cc1 [Compound 7d, 1-(2-Aminobenzoyl)-3-[4-(5-bromopyrimidin-2-ylsulfanyl)phenyl]urea] | – | – | – | – | – | – | – | increase in activity of 7d compared to 7c, Panc203 ([2]; sulfide versus ether link): > 117 fold; times more potent than compound 1, pancreatic cell lines [13]: 20 time; times more potent than compound 1, prostate cancer cell lines [14]: 20 times; increase in activity of 7d compared to 7c, Panc430 ([5]; sulfide versus ether link): > 50 fold; increase in activity of 7d compared to 7c, Panc1 ([6]; sulfide versus ether link): 39 fold; increase in activity of 7d compared to 7c, Miapaca2 ([8]; sulfide versus ether link): 9 fold; increase in activity of 7d compared to 7c, LAPC-4 ([11]; sulfide versus ether link): 7 fold |
